The values below come from a melting point compilation (Tetko et al.; mined from patent text by program, amines drawn as free bases though some values may be those of a salt).

`Nc1ncnc2c1c(-c1ccc(Oc3ccccc3)cc1)cn2S(=O)(=O)C1CCCC1` gave a melting point of 188 °C.
Take `CC1(C)[C@@H](C=C(Cl)c2ccc(Cl)cc2)[C@@H]1C(=O)O` (relative stereo): the melting point was in the range of 103 to 106 °C.
For `CCOC(=O)/C(=C/c1ccc(OC)c2c1CC(C)(C)O2)c1ccncc1`, the melting point lay in the range of 98 to 100 °C.
To `Cc1nnc(-c2ccc3occ(-c4cnco4)c3c2)o1` belongs 184 to 185 °C; to `O=C(c1ccccc1C(c1ccc(O)cc1)c1ccc(O)cc1)N1CCN(c2ccccc2Cl)CC1`, more than 300 °C.
To `CCCc1ccc(OCCC(C)C)cc1O` belongs 40 to 40.5 °C; to `CCCn1c(=O)c2[nH]c(-c3cc(C)n(CC(=O)Nc4ccc(Br)cc4)n3)nc2n(CCC)c1=O`, 270 to 273 °C.
To `COc1ccc(-c2nc(N)sc2-c2cccnc2)cc1` belongs 265 to 266 °C.
Molecule `CCN(CC)C(=S)c1c(C)cccc1[Si](C)(C)C` gave a melting point of 82 to 83 °C.
The figure for `COc1ccc(CCN(C)C(=O)COc2ccc([N+](=O)[O-])cc2)cc1OC` is 121 °C.
The figure for `NC(=O)C1=CCCc2cc(Sc3cccc(F)c3)ccc21` is 168 to 170 °C.
To `CCOCCn1cc2c(C3C(=O)Nc4ccc(Br)cc43)nc(NCCN(C)C)nc2n1` (configuration not stated) belongs 247 to 251 °C; to `CC(=O)N(N=Cc1c(Cl)cccc1Cl)c1nncn1N(C(C)=O)C(C)=O`, 140 to 150 °C.
Take `CCCCCCCCc1ccc(N(c2ccc(CCCCCCCC)cc2)C2(c3ccc(N(CC)CC)cc3C)OC(=O)c3nccnc32)cc1` (configuration not stated): the melting point lay within 180 to 187 °C.
Molecule `CON=Cc1cc([N+](=O)[O-])c(Cl)cc1Cl` showed a melting point of 129 to 132 °C.
As for `CCCCCCCCCC(=O)Nc1ccc(S(=O)(=O)Nc2nnc(C(C)(C)C)s2)cc1`, the melting point is 156 to 157 °C.
With `Clc1nn2c(-c3ccccc3)nnc2c2ccccc12`, the melting point lay in the range of 172 to 174 °C.
The figure for `Fc1cc(Br)cc(CBr)c1` is 41 to 43 °C; for `COc1ccc2c(c1)C(=O)[C@@H](O)[C@](C#Cc1ccccc1)(c1ccccc1)O2` (relative stereo) it is 135 to 138 °C.
To `CN(C)C/C=C\c1ncccc1OCCO` belongs 71 °C; to `Fc1ccc(F)c(CN2CCNc3ncc(-c4cn[nH]c4)cc32)c1Cl`, 272 °C; to `O=C(NCC1Cc2ccccc2C1)OCc1ccccc1`, 87 to 89 °C.
The figure for `CCOC(=O)C1=C(C)NC(C)=C(C(=O)OCC)C1c1ccccc1OCc1ccccc1` is 134 to 136 °C; for `OCc1cnoc1-c1ccc(Cl)cc1Cl` it is 76 to 77 °C; for `CCNC(=O)Nc1cc(-c2c(-c3ccc(F)c(C)c3)nc3c(C)ccnn23)ccn1` it is 240 to 241 °C.
`O=C(Cc1c(-c2ccccc2)c2cc3c(cc2oc1=O)C(=O)OC3)Nc1ccc(F)cc1C(F)(F)F` yielded a melting point of 253 to 254 °C.
To `CON=C(c1ccc(Cl)cc1)C(CNOC)CN1CCN(c2ccccn2)CC1` (configuration not stated) belongs 106 to 109 °C.
The molecule `CN(C)C=Nc1ccc(-n2ncnc2-c2ccccc2)cc1` showed a melting point of 109 to 111 °C.
The figure for `Clc1ccc(/C=C/C2=CCN(Cc3ccc(Cl)cc3)CC2)cc1` is 127 °C.
The figure for `COc1cc(C2C3=C(COC3=O)Nc3ccc4ncsc4c32)cc(OC)c1OC` (configuration not stated) is 309 to 310 °C; for `COc1cnc(CS(C)(=O)=O)nc1OC(=O)NN1CCOCC1` it is 138 °C; for `O=c1c2cccnc2c(-c2cccc(Cl)c2)cn1Cc1ccncc1` it is 170 to 172 °C.
To `CCC(C(C)=CC(CNC(=O)c1cnc2nc(C)ccc2c1O)=NO)[N+](=O)[O-]` (configuration not stated) belongs 204 to 205 °C.
As to `O=C(NC1CCOC1=O)c1cc2c(n(CC3CCCCC3)c1=O)CCCCCC2` (configuration not stated), the melting point was 136 to 140 °C.
To `CC(C)(Nc1ccc(OCc2ccccc2)cc1)C(=O)O` belongs 210 °C; to `OCC(O)CNc1nnc(-c2ccc(F)c(F)c2Nc2ccc(I)cc2F)o1` (configuration not stated), 157 to 159 °C; to `O=C(c1ccc(CNc2ncnc3ccccc23)cc1)N1CCN(c2ncc(Cc3ccccc3)cn2)CC1`, 99 to 101 °C.
For the molecule `COCc1cc(-c2ncc3[nH]c4cccc(OCc5ccccc5)c4c3c2COC)no1`, the melting point is 133 to 135 °C.
The figure for `COC(C=Cc1ccccc1)=C1C(=O)C=C(C)C1=O` is 86 °C; for `CC(=O)Nc1cccc(-c2cnc3[nH]cc(C(=O)C(C)(C)C)c3n2)c1` it is 249 to 250 °C; for `COc1nc(C)cnc1NS(=O)(=O)c1cccnc1-c1ccc(CC(C)C)cc1` it is 128 to 129 °C.
Consider `CCCCCCCCCOc1ccc(-c2ccc(OCC(C)CC)nn2)cc1` (configuration not stated), for which the melting point stood at 87 °C.
The figure for `CCCCOc1ccc(CC(C)C(=O)Oc2ccc(-c3ccc(C#N)cc3)cc2)cc1` (configuration not stated) is 76.1 to 77.1 °C; for `COc1c(N2CCC(N)C(C)C2)c(F)c(N)c2c(=O)c(C(=O)O)cn(C3CC3)c12` (configuration not stated) it is 260 to 262 °C; for `O=C(Nc1ccc2[nH]ncc2c1)O[C@@H](c1cccc(C(F)(F)F)c1)[C@@H]1CCCCN1` it is 190 °C.
Take `COc1ccc(C(C)=Cc2ccncc2)c2c1OC1(CCCC1)C2`: the melting point was 85 to 87 °C.
To `COc1ccc2c(C(=O)O)ccc(OC)c2c1` belongs 227 to 229 °C; to `CCCCCC(Oc1ccc(C2=CCCCCCC2)cc1)C(=O)O` (configuration not stated), 57 to 60 °C.
To `COc1ccc(-c2nc(C(N)=O)c(N)nc2-c2ccccc2)cn1` belongs 208 to 212 °C; to `Nc1nc2ccccc2n2cnc(-c3noc(C4CC4)n3)c12`, 305 to 310 °C.
To `COC(=O)c1ncc(Nc2cc(C)[nH]n2)nc1Nc1ccc(Cl)cc1` belongs 259 to 261 °C.
Regarding `O=C(Nc1ccc2c(c1)NCCC2)c1cc2cc(C(F)(F)F)ccc2n1Cc1cccc(F)c1`, the melting point is 203 to 204 °C.
The figure for `Cc1oc(-c2cc3ccccc3o2)nc1COc1ccc(CCCC2OC(=O)NC2=O)cc1` (configuration not stated) is 165 to 166 °C; for `NS(=O)(=O)CCNC(=O)OCc1ccccc1` it is 107 to 109 °C.
To `Cc1ccc2c(c1)C1CN(CCCC(=O)c3ccc(F)cc3)CCC1N2` (configuration not stated) belongs 154 to 158 °C; to `O=S1(=O)c2ccccc2-c2ccc(F)cc21`, 229 to 233 °C; to `CS(=O)(=O)NCCCc1c[nH]c(-c2ccc(F)cc2)c1-c1ccncc1`, 210 to 214 °C.
The figure for `CCCNC(=O)NCc1cccc2c1CN(C1CCC(=O)NC1=O)C2=O` (configuration not stated) is 298 to 300 °C; for `CS(=O)(=O)c1ccc(-c2cnn(-c3ccc(Cl)c(F)c3)c(=O)c2-c2ccc(F)cc2)cc1` it is 102 to 110 °C; for `Cc1ccc(C(C)N(O)C(=O)c2ccc(S(C)(=O)=O)cc2)o1` (configuration not stated) it is 177 °C.
The molecule `Cc1cc(C)c(C(=O)COc2ccc(C(=O)C(=O)O)cc2)c(C)c1` displayed a melting point of 144 to 145 °C.
For the molecule `CN1c2ccc(CC(=O)O)cc2CCC1c1ccccc1` (configuration not stated), the melting point fell in the range of 110 to 111 °C.
The figure for `COC(=O)OC1=C(c2cc(C)ccc2C)C(=O)NC12CCN(OC)CC2` is 186 to 188 °C; for `C=CCOC(=O)c1ccccc1Cn1c(=O)n(S(=O)(=O)c2ccc(Cl)cc2)c(=O)c2ccc(Cl)cc21` it is 155 to 156 °C.
The figure for `CCOC(=O)[C@@H]1C[C@H]2C[C@H](COCC#N)CC[C@H]2CN1C(=O)OC` (racemic) is 263 °C; for `CN1CCC(c2cnn3c(-c4cccc(NC(=O)c5cccc(C(F)(F)F)c5)c4)ccnc23)CC1` it is 183 to 185 °C.
To `N=C(N)Nc1nc(CSCCNc2ncc(Cc3ccc(Cl)cc3)c(=O)[nH]2)cs1` belongs 205 to 207 °C; to `CS(=O)(=O)Nc1ccccc1Sc1c(C(=O)O)sc2cc(OCc3cccnc3)ccc12`, 258 to 260 °C.
As to `CCOC(=O)C(=O)CC(=O)/C=C/c1ccc(Cl)c(OC)c1F`, the melting point was in the range of 67.5 to 69 °C.
To `COc1cc2c(cc1O)C(C)(C)CC2=O` belongs 105 to 107 °C.
In the case of `CC(C)(C)OC(=O)COC1CCN(C(=O)CC(=O)Nc2ccc(C(N)=NO)cc2)CC1`, the melting point fell in the range of 161 to 163 °C.
The figure for `CCCCCC(C)C(C)c1cc(O)cc(OC(NC(C)=O)c2ccccc2)c1` (configuration not stated) is 196 to 199 °C.
The figure for `COC(=O)CCC/C=C(/c1cc(C)c2onc(OC)c2c1)c1cc(C)c2oc(=O)n(C)c2c1` is 54 to 55 °C; for `CC(C)c1nc(N(C)S(C)(=O)=O)nc(-c2ccc(F)cc2)c1/C=C/C#N` it is 134 °C; for `Cc1[nH]cc2c(=O)n(-c3ccc(Cl)cc3)nc-2c1-c1cccc(-c2cccnc2)c1` it is 312 to 318 °C.
The molecule `CCc1cccc(C)c1CNc1cc(C(N)=O)nc2c1nc(C)n2C` gave a melting point of 237 to 239 °C.
The figure for `CSc1sc(C(N)=O)c2c1-c1[nH]c(-c3ccccc3)nc1CC2` is 206 to 207 °C; for `CCOC(=O)c1cnc2sc(C)cc2c1O` it is 118 to 120 °C.
The figure for `CCCCc1c(C(=O)c2ccc(OC)cc2)c2cc([N+](=O)[O-])ccc2n1C` is 168 °C; for `COC(=O)c1cccc(NC(=S)Nc2cc(NC(=O)Nc3ccc(Cl)c(Cl)c3)ccc2OC)c1` it is 193 to 194 °C.
To `CCOC(=O)C1=C(C(F)(F)F)Nc2n[nH]cc2C1c1ccc(OC)cc1` (configuration not stated) belongs 159 to 161 °C; to `CCCCNc1cc(C(=O)O)cc(S(N)(=O)=O)c1Nc1ccc(N)cc1`, 210 °C; to `COC(=O)c1cc(-n2cnnc2)c(C(F)(F)F)cc1N`, 184 to 186 °C.
`C#Cc1cc(Cc2cnc(N)nc2N)cc(OC)c1OC` returned a melting point of 173 to 175 °C.
`Cn1nc(Nc2cc(Cl)n[nH]c2=O)cc1CN1CCC1` registered a melting point of 140 to 141 °C.
To `Cc1nnc(-c2ccc3occ(-c4cc(Cl)ccc4Cl)c3c2)o1` belongs 185 to 186 °C; to `Cc1cc(C)nc(NCC#N)c1`, 92 to 93 °C.

In general, melting point refers to the temperature of the solid-liquid transition.
